# According to US20140348861A1, “SYNTHETIC PEPTIDES AND RANDOM COPOLYMERS FOR THE TREATMENT OF AUTOIMMUNE DISORDERS” (NATIONAL INSTITUTE OF IMMUNOLOGY, priority 2011, published 2014):
# Non-standard residues stand in square brackets, D forms with d. No end group written: not given here. β3hY = N[C@H](CC(=O)O)Cc1ccc(O)cc1; β3hK = NCCCC[C@H](N)CC(=O)O; β3hV = CC(C)[C@H](N)CC(=O)O; β3hA = C[C@H](N)CC(=O)O
# Columns and labels:
# spleenocytes = test: Th1/Th2 cytokine levels in culture supernates of spleenocytes from treatment groups; format: cell-based, mice; settings: spleenocytes at the end of four weeks, FIG. 4; for decrease in IFN-γ levels: stimulated 48 h
# Protocol: Levels of various cytokines in culture supernates were determined by sandwich ELISA using multiplex cytokine ELISA kit (Millipore). Briefly, 100 μl of cell culture supernates from various groups were incubated with antibody (against various pro and anti-inflammatory cytokines) coated fluorescent polystyrene beads in 96 well microtiter plates, stained with PE-conjugated secondary antibody, provided in the kit and samples were acquired on […] (Bio-rad).
# Effect of a group of analogs comprising analogs viz.
# Effect of β^3-homo amino acid containing copolymers viz S101, S102 and S103 on Th1/Th2 cytokine balance was studied in comparison to other copolymers viz. GA, J91, J92, for which culture supernates of spleenocytes grown in the presence of various copolymers, were assayed using ELISA to determine the levels of various cytokines. […] Most noteworthy change was in the levels of IL-2 in the S101, S102 and S103 treated groups, where the levels were brought down by 60-70%.
# [1] = in vivo; cited from earlier work
# HLA DR2 = target: T1, HLA DR2 (Homo sapiens, UniProt P01903+P01911); test: Inhibition of binding of biotinylated MBP (85-99) to HLA DR2; settings: 5 μM competitor, 0.5 μM biotinylated MBP (85-99); FIG. 3
# T1 construct: endogenous in cells; host or cells: MGAR lymphoblastoid B cell line (IHWG, Seattle)
# Protocol: HLA DR2 molecules were affinity purified from MGAR (a lymphoblastoid B cell line expressing HLA DR2 obtained from IHWG, Seattle, Wash. —USA) cell line. Cells were cultured in RPMI 1640 supplemented with 10% FBS, 2 mM glutamine, 50 U/ml penicillin and 50 μg/ml streptomycin. The anti-DR antibody L243 was purchased from Santacruz Biotech.
# HLA DR2 was purified to a purity of 90-95% by immunoaffinity purification. Briefly, MGAR cells were detergent solubilized to prepare the membrane fraction which was passed sequentially through sepharose CL-6B, normal mouse serum-affinity-gel, Protein A sepharose CL-4B and L243-protein A sepharose-CL-4B at a flow rate of around 10-11 ml/h. The final eluate was dialyzed against 0.1% deoxycholate, 10 mM Tris-HCl (pH 8.0) and concentrated using centricon concentrators from Millipore. Protein concentration was determined using bicinchoninic acid (BCA) assay (Sigma). The obtained protein fraction was also run on SDS-PAGE gel to confirm identity and purity.
# Copolymers (GA, J91, J92, S101 to S109) and peptide analogs (S1-S82) at a final concentration of 5 μM were coincubated with biotinylated MBP (85-99; purchased from Bioconcept Labs Pvt. Ltd. India) at a final concentration of 0.5 μM and HLA DR2 (0.5 μg/sample) molecules for 40 h at 37° C. and transferred to a 96-well microtiter assay plates coated with 1 μg/well purified L243 mAb. Coating of microtiter plates was performed with 100 μl of L243 mAb in PBS for 18 h at 4° C. […] 3,3′,5,5′-tetramethylbenzidine (TMB, substrate for […]) was added to each well and absorbance at 410 nm was recorded on an ELISA reader (TECAN infinite M200).
# Ability of analogs viz. […] Most of the analogs designed herein viz.
# β^3-homo amino acid containing copolymers viz. […] Copolymers containing β^3-homo amino acids viz.
# [2] = tested on: relapsing remitting EAE in SJL/J mice; test: Prophylactic (pre-treatment) efficacy in relapsing remitting EAE; format: in vivo; settings: pre-treatment 0.5 mg in IFA; FIG. 2i
# Protocol: (§1) To induce RR EAE or chronic progressive EAE, SJL/J or C57BL6/J mice were immunized subcutaneously with 0.2 mg of MBP (85-109) or 0.1 mg MOG (35-55) emulsified in CFA and 200 ng of pertussis toxin was injected intraperitoneally on day 0 and day 2 so as to permeablize the blood brain barrier. All the animals in various experimental groups were scored daily for clinical disability on a scale of 0-6 where 0=no neurological symptoms, 1=limp tail, 2=weakness of hind limbs or ataxia, 3=incomplete paralysis of hind limbs, 4=complete paralysis of hind limbs, 5=complete paralysis of all four limbs, 6=dead. Diseased animals were provided easy access to food and water.
# [3] = tested on: SJL/J mice exhibiting MBP (85-109) induced relapsing remitting form of EAE; test: Therapeutic activity in MBP (85-109) induced relapsing remitting EAE, treatment from day 11; format: in vivo; settings: for Therapeutic activity in comparison to GA (Therapeutic activity (Analogs) − Therapeutic activity GA) / Therapeutic activity in comparison to J5 (Therapeutic activity (Analogs) − Therapeutic activity (J5)) / Therapeutic activity = % reduction in cumulative clinical disability score: SJL/J mice, RR EAE; for Therapeutic activity in comparison to GA (Therapeutic activity (Analogs) − Therapeutic activity GA) / Therapeutic activity in comparison to J5 (Therapeutic activity (Analogs) − Therapeutic activity (J5)): 0.1 mg daily for two weeks
# Method in brief: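 Female SJL/J mice, 8-10 weeks, immunized s.c. with 0.2 mg MBP (85-109) in CFA plus 200 ng pertussis toxin i.p. on days 0 and 2. Treatment ran from day 11 for two weeks. Clinical disability was scored daily on a 0-6 scale.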
# [4] = tested on: MOG (35-55) induced chronic EAE in C57BL6/J mice; test: Prophylactic (pre-treatment) efficacy in MOG (35-55) induced chronic EAE; format: in vivo; settings: FIGS. 2j and 2k
# Protocol: as §1
# [5] = tested on: MBP (85-109) reactive CD4+ and CD8+ T-cells; test: Recall (proliferative) response of CD4+ and CD8+ T-cells to MBP (85-109) after pre-treatment; format: cell-based, mice
# From the text: Spleen derived dendritic cells were isolated to >95% purity using plasmacytoid dendritic cell isolation kit from Miltenyi Biotech. Spleenocytes were isolated from spleen of SJL/J mice, minced and passed through a 70 micron cell strainer (BD Falcon) to get a single cell suspension. The resulting spleenocytes were first depleted of CD3+ T cells and CD 49b/pan NK+ cells using LD depletion columns provided in the kit. The CD3 and CD 49b negative cell population was collected, counted and positive selection of CD11c+ dendritic cells was performed on positive selection columns provided in the kit. The CD11c+ population was collected by removing the column from the magnetic stand, stained with trypan blue to check the viability and purity was determined using flow cytometry.
# After two weeks spleenocytes were isolated, fractioned into CD4+ and CD8+ T-cells, cultured with MBP (85-109) pulsed spleen derived dendritic cells and assayed for proliferation (^3[H]-thymidine). […] As recall response to MBP (85-109) is a direct measure of frequencies of MBP (85-109) reactive CD4+ or CD8+ T-cells, in the immunized animals.
# [6] = tested on: MOG (35-55) induced chronic progressive EAE in C57BL6/J mice; test: Therapeutic effect in MOG (35-55) induced chronic progressive EAE; format: in vivo; settings: daily dose of 5 mg/Kg body weight, FIGS. 2e and 2f
# Protocol: as §1
# Some analogs viz. […] Dosage kinetic experiments with analog S27 representing the group of analogs comprising viz.
# [7] = synthetic peptides, 0.1 mg daily for two weeks from day 11 post-immunization
# T1 sequence (P01903 26-254): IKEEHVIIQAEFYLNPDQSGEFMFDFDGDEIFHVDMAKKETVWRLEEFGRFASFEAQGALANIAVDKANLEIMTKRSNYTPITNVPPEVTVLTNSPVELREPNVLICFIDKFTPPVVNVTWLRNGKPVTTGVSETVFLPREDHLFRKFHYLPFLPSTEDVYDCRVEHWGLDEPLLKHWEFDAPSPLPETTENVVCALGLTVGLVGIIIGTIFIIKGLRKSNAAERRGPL
# T1 sequence (P01911 30-266): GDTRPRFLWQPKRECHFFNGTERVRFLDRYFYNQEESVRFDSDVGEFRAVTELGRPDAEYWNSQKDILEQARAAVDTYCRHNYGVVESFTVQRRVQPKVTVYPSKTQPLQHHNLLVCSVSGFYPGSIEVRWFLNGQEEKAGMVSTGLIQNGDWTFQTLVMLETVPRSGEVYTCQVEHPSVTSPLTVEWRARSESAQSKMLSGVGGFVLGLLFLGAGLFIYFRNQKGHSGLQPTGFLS
substance,measurement,setting,value
"Glatiramer Acetate [GA, reference compound]",decrease in IFN-γ levels,spleenocytes,approximately 70%
same,rise in IL-4 levels,spleenocytes,~2 fold
same,success rate in reducing the relapses,[1],30%
same,inhibition of binding of biotinylated MBP (85-99) to HLA DR2,HLA DR2,~21%
same,effect on clinical onset of disease,[2],no effect on clinical onset of disease
same,Therapeutic activity in comparison to GA (Therapeutic activity (Analogs) − Therapeutic activity GA),[3],0%
same,Therapeutic activity in comparison to J5 (Therapeutic activity (Analogs) − Therapeutic activity (J5)),[3],−3.957%
same,Therapeutic activity = % reduction in cumulative clinical disability score,"[3]; amino acid copolymers, 0.1 mg daily for two weeks from day 11",27.12%
same,Therapeutic activity = % reduction in cumulative clinical disability score,[3]; [7],31.3369%
Kβ^3Vβ^3Eβ^3Aβ^3Yβ^3Kβ^3Aβ^3Aβ^3Aβ^3Aβ^3 ([β3hK][β3hV]X[β3hA][β3hY][β3hK][β3hA][β3hA][β3hA][β3hA]; not fully specified (residue 3); printed as Kβ^3Vβ^3Eβ^3Aβ^3Yβ^3Kβ^3Aβ^3Aβ^3Aβ^3Aβ^3) [Analog S27],decrease in IFN-γ levels,spleenocytes,approximately 70%
same,change in IL-4 levels,spleenocytes,only a marginal increase
same,suppression after pre-treatment,[4],55-60%
same,inhibition of binding of biotinylated MBP (85-99) to HLA DR2,HLA DR2,approximately 60%
same,"recall response to MBP (85-109), CD4+ T-cell fraction (3[H]-thymidine proliferation)","[5]; 0.5 mg in IFA a day before immunization, spleenocytes after two weeks, FIG. 1a",considerable suppression
same,"recall response to MBP (85-109), CD8+ T-cell fraction, suppression compared to J5 or GA treated group","[5]; 0.5 mg in IFA a day before immunization, spleenocytes after two weeks, FIG. 1b",much more pronounced
same,recall response to purified protein derivative (PPD),"[5]; specificity control antigen, FIGS. 1a and b",remained unaffected
same,reduction in clinical disability score,[6],~60%
same,delay of clinical onset of disease,[2],~3 days
same,duration of effect once the treatment is stopped,[3]; FIG. 2b,up to two weeks
same,Therapeutic activity in comparison to GA (Therapeutic activity (Analogs) − Therapeutic activity GA),[3],33.8%
same,Therapeutic activity in comparison to J5 (Therapeutic activity (Analogs) − Therapeutic activity (J5)),[3],29.84%
same,efficacy relative to GA,[3]; both treatment and pre-treatment scenarios,approximately two times better
same,optimum daily dosage,"[3]; dosage kinetic experiments, rodents, FIGS. 2c and 2d",5 mg/kg body weight
same,Therapeutic activity = % reduction in cumulative clinical disability score,[3]; [7],65.13%
